Read-outs that look alike come from different tables or passages of the source.
Key:
Human MTAP = biological target: T1, Human MTAP (Homo sapiens, UniProt Q13126); assay: 2AMTA continuous fluorescence kinetic assay with hsMTAP; assay type: biochemical
T1 sequence (Q13126 1-283): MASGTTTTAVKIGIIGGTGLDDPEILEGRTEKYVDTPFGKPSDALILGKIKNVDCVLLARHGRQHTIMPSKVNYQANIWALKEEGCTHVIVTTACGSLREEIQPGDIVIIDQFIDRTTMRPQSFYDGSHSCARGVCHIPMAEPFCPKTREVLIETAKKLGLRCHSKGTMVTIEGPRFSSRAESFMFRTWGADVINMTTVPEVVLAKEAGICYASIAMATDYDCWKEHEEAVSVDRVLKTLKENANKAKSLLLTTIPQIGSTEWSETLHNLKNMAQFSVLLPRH

Helicobacter pylori MTAN = Helicobacter pylori MTAN (Helicobacter pylori, UniProt Q9ZMY2); assay: 2AMTA continuous fluorescence kinetic assay with hpMTAN; assay type: biochemical
Yersinia pestis MTAN = assay type: biochemical
[1] = test system: Streptococcus pneumoniae MTAN; assay type: biochemical
Vibrio cholerae MTAN = Vibrio cholerae MTAN (Vibrio cholerae serotype O1, UniProt Q9KPI8); assay type: biochemical; conditions: enzyme concentration 1 μM, substrate concentration 1 mM
Vibrio cholerae MTAN, sequence (Q9KPI8 whole entry): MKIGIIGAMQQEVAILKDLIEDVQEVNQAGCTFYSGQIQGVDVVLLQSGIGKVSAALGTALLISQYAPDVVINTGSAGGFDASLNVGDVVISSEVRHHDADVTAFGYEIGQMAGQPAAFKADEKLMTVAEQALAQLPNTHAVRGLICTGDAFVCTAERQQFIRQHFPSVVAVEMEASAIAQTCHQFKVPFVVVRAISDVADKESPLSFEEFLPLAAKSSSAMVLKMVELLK

hsMTAP [2] = biological target: T2, hsMTAP (Homo sapiens, UniProt Q13126); assay: MTAP pre-steady-state stopped-flow kinetics; conditions: 10 μM 2AMTA, 5 μM MTAP
T2 sequence (Q13126 1-283): T1 sequence (Q13126 1-283)

hsMTAP [3] = biological target: T2, hsMTAP; assay: Ki* by 2AMTA fluorescence-based assay, Morrison fit, hsMTAP; assay type: biochemical; conditions: read-out: Ki∗ measured, 1–3 mM 2AMTA as substrate, slow-onset tight-binding, Morrison equation
hpMTAN [4] = biological target: T3, hpMTAN (Helicobacter pylori, UniProt Q9ZMY2); assay: Ki* by 2AMTA fluorescence-based assay, Morrison fit, hpMTAN; assay type: biochemical; conditions: read-out: Ki∗ measured, 1–3 mM 2AMTA as substrate, slow-onset tight-binding, Morrison equation
T3 sequence (Q9ZMY2 1-230): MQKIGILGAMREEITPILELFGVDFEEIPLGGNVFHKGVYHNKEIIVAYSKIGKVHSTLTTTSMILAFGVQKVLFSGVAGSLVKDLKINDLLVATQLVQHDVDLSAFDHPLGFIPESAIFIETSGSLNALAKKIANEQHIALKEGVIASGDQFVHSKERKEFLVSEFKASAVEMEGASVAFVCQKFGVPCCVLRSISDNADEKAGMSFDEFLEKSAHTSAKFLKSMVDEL

hsMTAP [5] = biological target: T2, hsMTAP; conditions: read-out: Ki∗ literature, ref [21],[22]; cited from earlier work
hpMTAN [6] = biological target: T3, hpMTAN; conditions: read-out: Ki∗ literature, ref [21],[22]; cited from earlier work
hsMTAP [7] = biological target: T2, hsMTAP; conditions: substrate MTA, ref [20],[28],[29]; cited from earlier work
hpMTAN [8] = biological target: T3, hpMTAN; conditions: substrate MTA, ref [20],[28],[29]; cited from earlier work
ecMTAN = conditions: substrate MTA, ref [20],[28],[29]; cited from earlier work
[9] = test system: Saccharomyces cerevisiae adenine phosphoribosyltransferase (scAPRTase); assay: 2,6-diaminopurine fluorescence assay of scAPRTase; assay type: biochemical; conditions: 1 mM PRPP
[10] = substrate 2AMTA, 100 mM potassium phosphate pH 7.4

In the case of 2-amino-5′-methylthioadenosine [2AMTA], the “decrease of catalytic efficiency (kcat/KM) with 2AMTA relative to MTA” value (Human MTAP) is reported as ~10 fold, the Km (Human MTAP; [10]) is reported as 34 ± 7 µM and the kcat (Human MTAP; [10]) is reported as 1.7 ± 0.2 s⁻¹. The “decrease of catalytic efficiency (kcat/KM) with 2AMTA relative to MTA” value (Helicobacter pylori MTAN) was ~10 fold, the Km (Helicobacter pylori MTAN; [10]) was 3.1 ± 0.5 µM and the kcat (Helicobacter pylori MTAN; [10]) was 7.0 ± 0.4 s⁻¹. For the same compound, the Km (Yersinia pestis MTAN) was 11 ± 4.4 µM, the kcat (Yersinia pestis MTAN; substrate 2AMTA, Yersinia pestis MTAN) was 1.1 ± 0.28 s⁻¹ and the “hydrolysis of 2AMTA” value ([1]; enzyme concentration 1 μM, substrate concentration 1 mM) was “unable to hydrolyze 2AMTA at significant rates”. The kcat ([1]; substrate 2AMTA, Streptococcus pneumoniae MTAN, 1 μM enzyme, 1 mM 2AMTA) was <10^−5 s^−1, the “hydrolysis of 2AMTA” value (Vibrio cholerae MTAN) was “unable to hydrolyze 2AMTA at significant rates” and the “apparent turnover rate (pre-steady-state)” value (hsMTAP [2]) was 270 ± 1 s⁻¹.

In the case of `CSCC1NC(c2c[nH]c3c(N)ncnc23)[C@@H](O)[C@H]1O` (stereo partly drawn) [MT-ImmA, Methylthio-Immucillin-A], the Ki (hsMTAP [3]) is given as 0.33 ± 0.068 nM, the Ki (hpMTAN [4]) is given as 0.066 ± 0.011 nM and the Ki (hsMTAP [5]) is given as 1 ± 0.5 nM. The Ki (hpMTAN [6]) was 0.04 ± 0.02 nM.

For 5′-methylthioadenosine [MTA], the Km (hsMTAP [7]) is given as 5 ± 1 µM, the kcat (hsMTAP [7]) is given as 2.5 ± 0.7 s⁻¹ and the Km (hpMTAN [8]) is given as 600 ± 300 nM. For the same compound, the kcat (hpMTAN [8]) was 12.1 ± 2.3 s⁻¹, the Km (ecMTAN) was 190 ± 20 nM and the kcat (ecMTAN) was 2.3 ± 0.1 s⁻¹.

In the case of `Nc1nc(N)c2[nH]cnc2n1` [2,6-diaminopurine], the “fold decreased kcat compared to adenine” value [9] is reported as ~400 fold, the “fold increased KM compared to adenine” value [9] is reported as “approximately 2 fold” and the “kcat/KM reduced by a factor compared to adenine” value [9] is reported as 800 fold.

In the case of `Nc1ncnc2c(CN3CC(CSc4ccc(Cl)cc4)[C@H](O)C3)c[nH]c12` (stereo partly drawn) [pCl-PhT-DADMe-ImmA, pCl-PhT-DADMe-Immucillin-A], the Ki (hsMTAP [3]) is given as 0.047 ± 0.013 nM, the Ki (hpMTAN [4]) is given as 0.36 ± 0.032 nM and the Ki (hsMTAP [5]) is given as 0.01 ± 0.005 nM. For the same compound, the Ki (hpMTAN [6]) was 0.57 ± 0.09 nM.

For `CSC[C@H]1CN(Cc2c[nH]c3c(N)ncnc23)C[C@@H]1O` [MT-DADMe-ImmA, Methylthio-DADMe-Immucillin-A], the Ki (hsMTAP [3]) is listed as 0.063 ± 0.01 nM, the Ki (hpMTAN [4]) is listed as 0.015 ± 0.0014 nM and the Ki (hsMTAP [5]) is listed as 0.09 ± 0.01 nM. The Ki (hpMTAN [6]) was 0.089 ± 0.019 nM.

Source: PMC5434977 (Analytical chemistry, 2016)
